In ChEMBL document CHEMBL6182840, “A review of click chemistry in the synthesis of organophosphorus triazoles and their biological activities” (Eur J Med Chem, 2025) one finds IC50 and inhibition data, which are given here for nine molecules.

Structures are written as SMILES. pIC50: −log10 of the molar value.

The test system of experiment [1] is HepG2. Put plainly: Cytotoxicity against human HepG2 cells assessed as reduction in cell viability by MTS assay. The experiment is classed as functional, cell-based. A general note: Tetrazolium assays rely on reduction of a dye to a coloured formazan, in cell work by metabolically active cells.
Experiment [2] is described as follows: Cytotoxicity against human PBMC cells assessed as reduction in cell viability by MTS assay. The experiment is classed as functional, cell-based.
Experiment [3] relates to Hepatitis B virus. Put plainly: Antiviral activity against HBV infected in human Huh-7 cells assessed as inhibition of HBV DNA production at 10 uM relative to control. The experiment is classed as functional.
Experiment [4] concerns MCF7. Nature of the experiment: Cytotoxicity against human MCF7 cells assessed as reduction in cell growth by MTT assay. The experiment is classed as functional, cell-based.
The subject of experiment [5] is HCT-116. Put plainly: Cytotoxicity against human HCT-116 cells assessed as reduction in cell growth by MTT assay. The experiment is classed as functional, cell-based.
The nature of experiment [6]: Cytotoxicity against human HEF cells assessed as reduction in cell growth by MTT assay. The experiment is classed as functional, cell-based.
The test system of experiment [7] is HCT-116. Put plainly: Cytotoxicity against human HCT-116 cells assessed as reduction in cell viability incubated for 72 hrs by MTT assay. The experiment is classed as functional, cell-based. Conditions: HCT-116, 72 h.
Experiment [8] concerns MCF7. Nature of the experiment: Cytotoxicity against human MCF7 cells assessed as reduction in cell viability incubated for 72 hrs by MTT assay. The experiment is classed as functional, cell-based. Conditions: MCF7, 72 h.
Experiment [9] has as its system Caov-3 cell line. Put plainly: Cytotoxicity against human Caov-3 cell line assessed as reduction in cell viability incubated for 72 hrs by MTT assay. The experiment is classed as functional, cell-based. Conditions: Caov-3, 72 h.
The test system of experiment [10] is A549. Put plainly: Cytotoxicity against human A549 cells assessed as reduction in cell viability incubated for 72 hrs by MTT assay. The experiment is classed as functional, cell-based. Conditions: A549, 72 h.
The subject of experiment [11] is PC-3. Put plainly: Cytotoxicity against human PC-3 cells assessed as reduction in cell viability incubated for 72 hrs by MTT assay. The experiment is classed as functional, cell-based. The settings on record: PC-3, 72 h.
For experiment [12], the target named is T1, 4-galactosyl-N-acetylglucosaminide 3-alpha-L-fucosyltransferase FUT6 (Homo sapiens, UniProt P51993).
T1 sequence (P51993 whole entry): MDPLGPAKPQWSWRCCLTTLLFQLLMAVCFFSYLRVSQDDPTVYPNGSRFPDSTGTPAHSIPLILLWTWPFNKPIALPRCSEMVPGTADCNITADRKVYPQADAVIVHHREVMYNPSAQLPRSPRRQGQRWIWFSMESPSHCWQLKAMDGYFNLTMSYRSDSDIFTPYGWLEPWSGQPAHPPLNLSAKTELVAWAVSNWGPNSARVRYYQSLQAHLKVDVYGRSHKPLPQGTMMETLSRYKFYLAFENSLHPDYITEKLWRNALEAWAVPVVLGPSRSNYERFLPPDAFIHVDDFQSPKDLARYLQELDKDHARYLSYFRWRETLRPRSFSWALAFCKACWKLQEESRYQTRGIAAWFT
Nature of the experiment: Inhibition of human FUT6.

As a reminder, the pIC50 is −log10 of the IC50, conventionally taken in molar units. Usually inhibition stands for the change of the read-out against control, counted positive when it falls. `CCCCCCCCCCCCCCCCOCCCOP(=O)(C/C=C(\C)Cn1cc(C(N)=O)nn1)OCOC(=O)OC(C)C` (stereo not given): the figures for the pIC50 in [1] and in experiment [2] were 4.18 and 4.37, respectively. In [3], the inhibition at 10 µM amounted to 62%.

Take `CCOP(=O)(OCC)C(Cc1cn(CCN2C/C(=C\c3ccc([N+](=O)[O-])cc3)C(=O)/C(=C/c3ccc([N+](=O)[O-])cc3)C2)nn1)P(=O)(OCC)OCC`: the pIC50 in [4], in experiment [5] and in [6] was 5.30 each time.

On to `CCOP(=O)(CCCn1cc(CN2C/C(=C\c3ccc(C#N)cc3)C(=O)/C(=C/c3ccc(C#N)cc3)C2)nn1)OCC`, for which the pIC50 in [7], in experiment [8], in experiment [9], in experiment [10] and in [11] was 5.82 each time.

As to `CCOP(=O)(CCCCn1cc(CN2C/C(=C\c3ccc([N+](=O)[O-])cc3)C(=O)/C(=C/c3ccc([N+](=O)[O-])cc3)C2)nn1)OCC`, the pIC50 in experiment [7], in experiment [8], in [9], in experiment [10] and in [11] was 5.82 in each case.

Consider `CCOP(=O)(CCCn1cc(CN2C/C(=C\c3ccc([N+](=O)[O-])cc3)C(=O)/C(=C/c3ccc([N+](=O)[O-])cc3)C2)nn1)OCC`, for which the pIC50 in experiment [7], in experiment [8], in experiment [9], in experiment [10] and in experiment [11] was 5.82 in each case.

`Nc1nc2c(ncn2[C@@H]2O[C@H](COP(=O)(O)OP(=O)(O)OCc3cn(CCCCC(=O)NCc4ccc(-c5ccccc5)cc4)nn3)[C@@H](O)[C@H]2O)c(=O)[nH]1` had a pIC50 in [12] of 6.21.

In the case of `CCOP(=O)(CCCCn1cc(CN2C/C(=C\c3ccc(C#N)cc3)C(=O)/C(=C/c3ccc(C#N)cc3)C2)nn1)OCC`, the pIC50 in experiment [7], in experiment [8], in experiment [9], in experiment [10] and in [11] was 5.82 throughout.

On to `CCOP(=O)(OCC)C(Cc1cn(CCN2C/C(=C\c3ccc(C#N)cc3)C(=O)/C(=C/c3ccc(C#N)cc3)C2)nn1)P(=O)(OCC)OCC`, for which the pIC50 in experiment [4], in experiment [5] and in [6] was 5.30 throughout.

Turning to `CCOP(=O)(CCCn1cc(CN2C/C(=C\c3ccc(F)cc3)C(=O)/C(=C/c3ccc(F)cc3)C2)nn1)OCC`, the pIC50 in experiment [7], in [8], in experiment [9], in [10] and in experiment [11] was 5.82 each time.
